Experimental data as given in patent publication US4761398A, “Method of inducing birds to molt” (Embrex, Inc., priority 1986, dated 1988).

Tests used:
[1] = system: single combed White Leghorn hens; experiment: Induction of molt by LHRH receptor ligand; assay type: in vivo; conditions: all treated groups, 25 micrograms/day
Procedure: After the two week pre-molt adjustment period, the hens were randomly assigned to each of eight different groups. These treatment groups were as follows: (1) control, (2) forced molt, (3) chemical molt-injected, (4) vehicle control-injected, (5) chemical molt-microcapsules A, (6) vehicle control-microcapsules A, (7) chemical molt-microcapsules B, and (8) vehicle control-microcapsules B.
The hens then received a seven day pre-molt treatment of a 24 hour light, zero hour dark photoperiod. On day 14 of the experiment the photoperiod was then reduced to natural day length for all treatments. Feed was made available ad libitum for all groups except the forced molt group. The forced molt group was deprived of food, but not of water, until a 30% body weight loss occurred (10 days of fasting).
[D-Trp^6 ]LHRH was used as the LHRH receptor ligand for the chemical molt groups. The "chemical molt-injected" group received intramuscular (breast) injections of 25 micrograms/day of [D-Trp^6 ]LHRH for 10 consecutive days beginning on day 14. Alternate pectoral (breast) areas were injected each day. […]
Microcapsules were suspended in disposable syringes in vehicle containing 2% carboxymethyl cellulose and 1% "TWEEN 20" in water. After thoroughly mixing the suspension, aliquots calculated to have released a dose of 25 micrograms/day for 15 consecutive days were injected into the breast muscle of the hens. […]

[2] = Body weight of hens through the molt and production period; assay type: in vivo, single combed White Leghorn hens
Procedure: During the experiment, two birds were assigned to each cage (12"×18"). The hens were maintained in their cages for two weeks prior to the molt. They received a 17 hour light: 7 hour dark photoperiod throughout this phase of the experiment. During this time, the following parameters were measured:(a) body weight (weekly); (b) feed consumption (all hens received a common layer ration, and the feed consumed during this two week period was measured); (C) production records (daily); and (d), total egg weight, egg shell weight, and egg specific gravity (measured on three consecutive days each week). Serum samples were taken once, from 10 randomly selected hens from each treatment group, and saved for future study. After the two week pre-molt adjustment period, the hens were randomly assigned to each of eight different groups. These treatment groups were as follows: (1) control, (2) forced molt, (3) chemical molt-injected, (4) vehicle control-injected, (5) chemical molt-microcapsules A, (6) vehicle control-microcapsules A, (7) chemical molt-microcapsules B, and (8) vehicle control-microcapsules B. The hens then received a seven day pre-molt treatment of a 24 hour light, zero hour dark photoperiod. On day 14 of the experiment the photoperiod was then reduced to natural day length for all treatments. Feed was made available ad libitum for all groups except the forced molt group. The forced molt group was deprived of food, but not of water, until a 30% body weight loss occurred (10 days of fasting). [D-[…] ]LHRH was used as the LHRH receptor ligand for the chemical molt groups. The "chemical molt-injected" group received intramuscular (breast) injections of 25 micrograms/day of [D-[…] ]LHRH for 10 consecutive days beginning on day 14. Alternate pectoral (breast) areas were injected each day. The "chemical molt-microcapsule" groups received a single intramuscular (breast) injection of microencapsulated [D-[…] ]LHRH on day zero. This preparation of microcapsules provided a controlled release of 25 micrograms [D-[…] ]LHRH per day for 15 consecutive days. For all treatments, body weights were measured at day zero and every three days thereafter, until the forced molt group achieved a 30% weight loss. Serum samples were periodically collected from 10 hens randomly selected from each group, and saved for future analysis. The same 10 hens from each group were bled at each collection. On day 14, the microcapsule injected groups received intramuscular injections of lactide/glycolide copolymer microcapsules which had [D-[…] ]LHRH incorporated therein. The ligand-containing microcapsules administered the "Microcapsules A" group were prepared and supplied by Debiopharm (Lausanne, Switzerland). These microcapsules were prepared by a phase-separation process to produce a free-flowing powder of spherical particles consisting of [D-[…] ]LHRH (2% wt/wt) distributed within a polymeric matrix of 53:47(mol %) poly(DL-lactide-co-glycolide) (98% wt/wt) with an inherent viscosity of 0.7 dl/g. The microcapsules were 50 micrometers or less in diameter. […] Photomicrographs of similar microcapsules are presented in T. W. Redding, et al., Proc. Natl. Acad. Sci. […]. 1984). Microcapsules were suspended in disposable syringes in vehicle containing 2% carboxymethyl cellulose and 1% "TWEEN 20" in water. After thoroughly mixing the suspension, aliquots calculated to have released a dose of 25 micrograms/day for 15 consecutive days were injected into the breast muscle of the hens. We weighed the microcapsules directly into disposable 3 ml syringes. The plunger of a plugged syringe containing microcapsules (without vehicle) was pulled back to the 1.5-2 cc mark. The hub of the syringe was then placed against a vortex mixer and the syringe vortexed rapidly for about 20 seconds, or until most of the clumps of microbeads were broken and distributed along the barrel of the syringe. […]

Substance: [D-Trp^6 ]LHRH [D-Trp^6 --LHRH]
- induction of molt [1]: induced to molt
- MEAN BODY WEIGHT ([2]; Day 5, before treatment): 1.669 kg
- MEAN BODY WEIGHT ([2]; Day 12, before treatment (treatment started day 13/14)): 1.722 kg
- MEAN BODY WEIGHT ([2]; Day 17, 25 micrograms/day i.m.): 1.765 kg
- MEAN BODY WEIGHT ([2]; Day 22, 25 micrograms/day i.m.): 1.704 kg
- MEAN BODY WEIGHT ([2]; Day 27): 1.637 kg
- MEAN BODY WEIGHT ([2]; Day 33): 1.654 kg
- MEAN BODY WEIGHT ([2]; Day 40): 1.747 kg
- MEAN BODY WEIGHT ([2]; Day 47): 1.760 kg
- MEAN BODY WEIGHT ([2]; Day 54): 1.761 kg
- MEAN BODY WEIGHT ([2]; Day 61): 1.802 kg
- MEAN BODY WEIGHT ([2]; Day 75): 1.838 kg
- MEAN BODY WEIGHT ([2]; Day Zero, before treatment): 1.720 kg
